Measurements as given in article PMC7501296, “Rapid and direct control of target protein levels with VHL-recruiting dTAG molecules” (Nature Communications, 2020).
“And” between values parts separate entries of the source, which are not always exact repeats. Identical values can stand only once.

Legend:
Assay type in all cases: cell-based
FKBP12^F36V-Nluc = molecular target: T1, FKBP12^F36V-Nluc (Homo sapiens, UniProt P62942, F37V); assay: FKBP12F36V-Nluc dual luciferase assay (293FT); conditions: 293FT FKBP12F36V-Nluc, 24 h
T1 construct: expressed in transfected cells; host or cells: 293FT
T1 sequence (P62942 2-108 F37V limits assumed): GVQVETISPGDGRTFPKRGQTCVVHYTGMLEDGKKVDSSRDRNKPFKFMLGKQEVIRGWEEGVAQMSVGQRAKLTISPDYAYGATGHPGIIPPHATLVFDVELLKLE
Method: (§1) Dual luciferase assays were performed using 293FT FKBP12^WT-Nluc and FKBP12^F36V-Nluc cells. In brief, cells were plated at 2000 cells per well in 20 µL of appropriate media in 384-well white culture plates (Corning), allowed to adhere overnight, and 100 nL of compounds were added using a Janus Workstation pin tool (PerkinElmer) for 24 h at 37 °C. To evaluate Fluc signal, plates were brought to room temperature, 20 µL of Dual-Glo Reagent (Promega) was added for 10 min and luminescence was measured on an Envision 2104 plate reader (PerkinElmer). Subsequently, 20 µL of Dual-Glo Stop & Glo Reagent (Promega) was added for 10 min and luminescence was again measured to capture Nluc signal. DMSO-normalized ratios of Nluc/Fluc signal was analyzed and plotted using GraphPad PRISM v8[6].

[1] = system: PATU-8902 FKBP12^F36V-KRAS^G12V; KRAS^-/- clone; assay: Antiproliferation, PATU-8902 FKBP12F36V-KRASG12V; KRAS-/- clone, 2D-monolayer (CellTiter-Glo)
Method: (§2) Cell viability was assayed in 2D-adherent or ultra-low adherent 3D-spheroids using CellTiter-Glo (Promega)[6],[15]. Luminescence was measured on an Envision 2104 plate reader (PerkinElmer) and Fluostar Omega Reader (BMG Labtech) and data was analyzed using GraphPad PRISM v8. Synergy assessments were performed using CellTiter-Glo (Promega) with the following modifications to the protocol described in the ref. [34]. In brief, EWS502 cells were plated at 1000 cells per well in 50 µL of appropriate media in 384-well white culture plates (Corning) allowed to adhere overnight, and 100 nL of compounds were added using a Janus Workstation pin tool (PerkinElmer) for 72 h. Cell viability was measured by addition of 10 µL of CellTiter-glo (Promega), followed by incubation for 15 minutes at room temperature. Luminescence was measured on an Envision 2104 plate reader (PerkinElmer) and data was analyzed using GraphPad PRISM v8.

[2] = system: PATU-8902 FKBP12^F36V-KRAS^G12V; KRAS^-/- clone; assay: Antiproliferation, PATU-8902 FKBP12F36V-KRASG12V; KRAS-/- clone, 3D-spheroid (CellTiter-Glo); conditions: FKBP12F36V-KRASG12V, KRAS-/-, 3D-spheroid, replicate values
Method: as §2

[3] = system: PATU-8902 LACZ-FKBP12^F36V clone; assay: Antiproliferation, PATU-8902 LACZ-FKBP12F36V clone, 3D-spheroid (CellTiter-Glo)
Method: as §2

[4] = system: PATU-8902 LACZ-FKBP12^F36V clone; assay: Antiproliferation, PATU-8902 LACZ-FKBP12F36V clone, 2D-monolayer (CellTiter-Glo)
Method: as §2

FKBP12^WT-Nluc = molecular target: T2, FKBP12^WT-Nluc (Homo sapiens, UniProt P62942); assay: FKBP12WT-Nluc dual luciferase assay (293FT); conditions: 293FT FKBP12WT-Nluc, 24 h
T2 construct: expressed in transfected cells; host or cells: 293FT
T2 sequence (P62942 2-108 limits assumed): as the sequence (P62942 2-108 F37V limits assumed) above, with V36F counted along it
Method: as §1

[5] = log10[compound] (M) -5.30103, single replicates
[6] = log10[compound] (M) -5.80103, single replicates
[7] = log10[compound] (M) -6.30103, single replicates
[8] = log10[compound] (M) -6.80103, single replicates
[9] = log10[compound] (M) -7.30103, single replicates
[10] = log10[compound] (M) -7.80103, single replicates
[11] = log10[compound] (M) -8.30103, single replicates
[12] = log10[compound] (M) -8.80103, single replicates
[13] = log10[compound] (M) -9.30103, single replicates
[14] = log10[compound] (M) -9.80103, single replicates
[15] = log10[compound] (M) -5.69897, replicate values
[16] = log10[compound] (M) -6.19897, replicate values
[17] = log10[compound] (M) -6.69897, replicate values
[18] = log10[compound] (M) -7.19897, replicate values
[19] = log10[compound] (M) -7.69897, replicate values
[20] = log10[compound] (M) -8.19897, replicate values
[21] = log10[compound] (M) -8.69897, replicate values
[22] = log10[compound] (M) -9.19897, replicate values
[23] = log10[compound] (M) -9.69897, replicate values
[24] = log10[compound] (M) -10.199, replicate values

CC[C@H](C(=O)N1CCCC[C@H]1C(=O)O[C@H](CCc1ccc(OC)c(OC)c1)c1ccccc1OCC(=O)NCCCCCCCCNc1ccc2c(c1)C(=O)N(C1CCCNC1=O)C2=O)c1cc(OC)c(OC)c(OC)c1 (stereo partly drawn) [dTAG-47-NEG]
DMSO-normalized ratio of Nluc/Fluc signal (FKBP12^F36V-Nluc; [5]): 107.204 and 133.65 and 125.111 and 106.713 | DMSO-normalized ratio of Nluc/Fluc signal (FKBP12^F36V-Nluc; [6]): 105.202 and 100.221 and 87.7709 and 98.1806 | DMSO-normalized ratio of Nluc/Fluc signal (FKBP12^F36V-Nluc; [7]): 114.516 and 112.689 and 63.1557 and 96.6176 | DMSO-normalized ratio of Nluc/Fluc signal (FKBP12^F36V-Nluc; [8]): 115.914 and 94.4993 and 79.2868 and 83.2258 | DMSO-normalized ratio of Nluc/Fluc signal (FKBP12^F36V-Nluc; [9]): 95.8358 and 90.9039 and 76.6637 and 114.52 | DMSO-normalized ratio of Nluc/Fluc signal (FKBP12^F36V-Nluc; [10]): 93.9184 and 139.979 and 82.2221 and 91.2143 | DMSO-normalized ratio of Nluc/Fluc signal (FKBP12^F36V-Nluc; [11]): 91.746 and 110.613 and 89.992 and 115.75 | DMSO-normalized ratio of Nluc/Fluc signal (FKBP12^F36V-Nluc; [12]): 108.43 and 84.8167 and 129.223 and 114.161 | DMSO-normalized ratio of Nluc/Fluc signal (FKBP12^F36V-Nluc; [13]): 128.159 and 120.38 and 100.065 and 103.942 | DMSO-normalized ratio of Nluc/Fluc signal (FKBP12^F36V-Nluc; [14]): 95.5174 and 90.4935 and 78.1755 and 112.193 | DMSO-normalized antiproliferation [1, 15]: 74.7022 and 73.4799 and 58.8574 and 61.1381 | DMSO-normalized antiproliferation [1, 16]: 87.1466 and 90.577 and 94.4269 and 106.738 | DMSO-normalized antiproliferation [1, 17]: 79.5247 and 86.4598 and 105.965 and 87.3723 | DMSO-normalized antiproliferation [1, 18]: 125.17 and 98.7432 and 116.205 and 122.113 | DMSO-normalized antiproliferation [1, 19]: 90.1708 and 148.45 and 111.91 and 91.8745 | DMSO-normalized antiproliferation [1, 20]: 119.425 and 116.853 and 127.987 and 145.045 | DMSO-normalized antiproliferation [1, 21]: 87.2626 and 88.668 and 110.555 and 114.959 | DMSO-normalized antiproliferation [1, 22]: 135.954 and 152.721 and 117.778 and 94.3712 | DMSO-normalized antiproliferation [1, 23]: 100.893 and 117.34 and 101.502 and 86.7015 | DMSO-normalized antiproliferation [1, 24]: 99.6176 and 90.8045 and 95.2889 and 85.7881 | DMSO-normalized antiproliferation ([2]; log10[compound] (M) -5.69897): 82.482 and 87.6886 and 103.208 and 99.4884 | DMSO-normalized antiproliferation ([2]; log10[compound] (M) -6.19897): 113.805 and 93.9254 and 98.397 and 96.9436 | DMSO-normalized antiproliferation ([2]; log10[compound] (M) -6.69897): 123.227 and 117.041 and 133.19 and 118.656 | DMSO-normalized antiproliferation ([2]; log10[compound] (M) -7.19897): 81.3571 and 110.96 and 121.028 and 111.088 | DMSO-normalized antiproliferation ([2]; log10[compound] (M) -7.69897): 122.42 and 111.862 and 100.29 and 122.927 | DMSO-normalized antiproliferation ([2]; log10[compound] (M) -8.19897): 142.5 and 118.093 and 120.226 and 127.732 | DMSO-normalized antiproliferation ([2]; log10[compound] (M) -8.69897): 121.028 and 116.139 and 119.196 and 128.785 | DMSO-normalized antiproliferation ([2]; log10[compound] (M) -9.19897): 130.238 and 109.673 and 113.755 and 125.733 | DMSO-normalized antiproliferation ([2]; log10[compound] (M) -9.69897): 131.246 and 139.231 and 145.63 and 98.1297 | DMSO-normalized antiproliferation ([2]; log10[compound] (M) -10.199): 85.3442 and 82.6434 and 122.826 and 96.2419 | DMSO-normalized antiproliferation [3, 15]: 97.4751 and 103.304 and 87.3281 and 98.4167 | DMSO-normalized antiproliferation [3, 16]: 115.352 and 92.3949 and 111.46 and 98.7799 | DMSO-normalized antiproliferation [3, 17]: 115.675 and 135.633 and 120.527 and 101.762 | DMSO-normalized antiproliferation [3, 18]: 132.781 and 104.479 and 141.691 and 94.0763 | DMSO-normalized antiproliferation [3, 19]: 113.77 and 136.938 and 126.087 and 111.72 | DMSO-normalized antiproliferation [3, 20]: 141.265 and 116.402 and 127.835 and 120.491 | DMSO-normalized antiproliferation [3, 21]: 117.15 and 123.8 and 115.155 and 128.638 | DMSO-normalized antiproliferation [3, 22]: 109.537 and 110.734 and 119.818 and 124.491 | DMSO-normalized antiproliferation [3, 23]: 101.506 and 115.774 and 112.487 and 105.932 | DMSO-normalized antiproliferation [3, 24]: 91.3412 and 111.541 and 123.365 and 101.901 | DMSO-normalized antiproliferation [4, 15]: 66.1984 and 57.9546 and 80.6556 and 62.9228 | DMSO-normalized antiproliferation [4, 16]: 65.6828 and 85.4625 and 78.6518 and 76.5663 | DMSO-normalized antiproliferation [4, 17]: 102.61 and 78.6871 and 110.55 and 102.23 | DMSO-normalized antiproliferation [4, 18]: 104.837 and 92.9898 and 109.382 and 132.676 | DMSO-normalized antiproliferation [4, 19]: 141.282 and 157.373 and 114.442 and 100.315 | DMSO-normalized antiproliferation [4, 20]: 95.0388 and 126.489 and 147.158 and 156.144 | DMSO-normalized antiproliferation [4, 21]: 96.771 and 104.289 and 112.53 and 88.7912 | DMSO-normalized antiproliferation [4, 22]: 117.441 and 113.828 and 97.736 and 88.8651 | DMSO-normalized antiproliferation [4, 23]: 104.694 and 108.624 and 153.334 and 121.648 | DMSO-normalized antiproliferation [4, 24]: 108.17 and 124.096 and 109.419 and 107.694 | DMSO-normalized ratio of Nluc/Fluc signal (FKBP12^WT-Nluc; [5]): 112.983 and 133.743 and 109.836 and 118.552 | DMSO-normalized ratio of Nluc/Fluc signal (FKBP12^WT-Nluc; [6]): 88.6495 and 108.291 and 97.1172 and 97.9891 | DMSO-normalized ratio of Nluc/Fluc signal (FKBP12^WT-Nluc; [7]): 84.7288 and 98.5773 and 69.8656 and 85.4355 | DMSO-normalized ratio of Nluc/Fluc signal (FKBP12^WT-Nluc; [8]): 111.882 and 117.981 and 82.1602 and 97.6002 | DMSO-normalized ratio of Nluc/Fluc signal (FKBP12^WT-Nluc; [9]): 80.9372 and 116.345 and 96.4274 and 100.006 | DMSO-normalized ratio of Nluc/Fluc signal (FKBP12^WT-Nluc; [10]): 91.8268 and 107.899 and 89.5705 and 101.339 | DMSO-normalized ratio of Nluc/Fluc signal (FKBP12^WT-Nluc; [11]): 96.8786 and 106.696 and 109.119 and 135.476 | DMSO-normalized ratio of Nluc/Fluc signal (FKBP12^WT-Nluc; [12]): 100.791 and 113.508 and 74.3676 and 105.961 | DMSO-normalized ratio of Nluc/Fluc signal (FKBP12^WT-Nluc; [13]): 140.604 and 140.668 and 98.5907 and 115.954 | DMSO-normalized ratio of Nluc/Fluc signal (FKBP12^WT-Nluc; [14]): 87.4488 and 119.502 and 82.5871 and 99.1801
